# Measurements published in EP2611798B1, “PYRIDAZINONES, METHOD OF MAKING, AND METHOD OF USE THEREOF” (Gilead Connecticut, Inc., priority 2010, dated 2012).
# Experiments:
# [1] = target: T1, full length human wildtype Btk (Homo sapiens, UniProt Q06187); assay: Biochemical Btk Kinase Assay (Example 901); conditions: time-resolved fluorescence, final ATP concentration 40 µM; alternatively Lanthascreen assay, ATP 25 uM
# T1 construct: V5 (C); 6xHis (C); made in house; host or cells: Sf9 insect cells (baculovirus, pFastBac)
# Description: Formula I compounds were tested by a standard biochemical Btk Kinase Assay (Example 901). A generalized procedure for a standard biochemical Btk Kinase Assay that can be used to test Formula I compounds is as follows. […] Btk enzyme is prepared as follows: full length human wildtype Btk (accession number NM-000061) with a C-terminal V5 and 6x His tag was subcloned into pFastBac vector for making baculovirus carrying this epitope-tagged Btk. Generation of baculovirus is done based on Invitrogen's instructions detailed in its published protocol "Bac-to-Bac Baculovirus Expression Systems" (Cat. Nos. 10359-016 and 10608-016). Passage 3 virus is used to infect Sf9 cells to overexpress the recombinant Btk protein. The Btk protein is then purified to homogeneity using Ni-NTA column. The purity of the final protein preparation is greater than 95% based on the sensitive Sypro-Ruby staining. A solution of 200 µM ATP is prepared in water and adjusted to pH7.4 with 1N NaOH. A quantity of 1.25 µL of compounds in 5%DMSO is transferred to a 96-well ½ area Costar polystyrene plate. Compounds are tested singly and with an 11-point dose-responsive curve (starting concentration is 10 µM; 1:2 dilution). A quantity of 18.75 µL of master mix minus enzyme (as a negative control) and master mix plus enzyme is transferred to appropriate wells in 96-well ½ area costar polystyrene plate. 5 µL of 200 µM ATP is added to that mixture in the 96-well ½ area Costar polystyrene plate for final ATP concentration of 40 µM. The reaction is allowed to incubate for 1 hour at room temperature. The reaction is stopped with Perkin Elmer 1X detection buffer containing 30 mM EDTA, 20 nM SA-APC, and 1 nM PT66 Ab. The plate is read using time-resolved fluorescence with a Perkin Elmer Envision using excitation filter 330 nm, emission filter 665 nm, and 2nd emission filter 615 nm. IC50 values are subsequently calculated. Alternatively, the Lanthascreen assay can be used to evaluate Btk activity through quantification of its phosphorylated peptide product. The FRET (Fluorescence Resonance Energy Transfer) that occurs between the fluorescein on the peptide product and the terbium on the detection antibody decreases with the addition of inhibitors of Btk that reduce the phosphorylation of the peptide. […] After incubation for 60 minutes at room temperature, the reaction is stopped by the addition of a final concentration of 2 nM Tb-PY20 detection antibody in 60 mM EDTA for 30 minutes at room temperature. Detection is determined on a Perkin Elmer Envision with 340 nm excitation and emission at 495 nm and 520 nm. Exemplary Btk inhibition IC50 values are in Tables and 2.
# [2] = tested on: CD86 surface expression; assay: CD86 Inhibition Assay (Example 905), inhibition of B cell activity in total mouse splenocytes; format: cell-based, Balb/c mice; conditions: Splenocyte; total mouse splenocytes stimulated with 15 µg/ml IgM for 24 hr; gated on CD19+/7AAD- population
# Description: A CD86 Inhibition assay can be conducted on Formula I compounds for the inhibition of B cell activity using total mouse splenocytes purified from spleens of 8-16 week old Balb/c mice (Example 905).
# A generalized procedure for a standard assay for the inhibition of B cell activity that can be used to test Formula I compounds is as follows. Total mouse splenocytes are purified from spleens of 8-16 week old Balb/c mice by red blood cell lysis (BD Pharmingen #555899). Testing compounds are diluted to 0.5% DMSO and incubated with 1.25 x 10^6 splenocytes in a final volume of 200 µl in flat clear bottom plates (Falcon 353072) for 60 min at 37°C. Cells are then stimulated with the addition of 15 µg/ml IgM (Jackson ImmunoResearch 115-006-020), and incubated for 24 hr at 37°C, 5% CO2. Following the 24 hr incubation, cells are transferred to conical bottom clear 96-well plates and pelleted by centrifugation at 1200 x g x 5 min. Cells are preblocked by CD16/CD32 (BD Pharmingen #553142), followed by triple staining with CD19-FITC (BD Pharmingen #553785), CD86-PE (BD Pharmingen #553692), and 7AAD (BD Pharmingen #51-68981E). Cells are sorted on a BD FACSCalibur and gated on the CD19^+/7AAD^- population. The levels of CD86 surface expression on the gated population is measured versus test compound concentration. Exemplary results are in Table 3.
# [3] = tested on: production of CD69 by B lymphocytes in human whole blood; assay: CD69 Whole Blood Assay (Example 907); format: cell-based; conditions: Lymphocyte; human whole blood activated with goat F(ab')2 anti-human IgM, 20 hours; percent CD69 positive cells that are also CD20 positive
# Text: A CD69 Whole Blood Assay can be conducted on Formula I compounds to determine the ability of compounds to inhibit the production of CD69 by B lymphocytes in human whole blood activated by crosslinking surface IgM with goat F(ab')2 anti-human IgM (Example 907).
# Human blood is obtained from healthy volunteers, with the following restrictions: 1 week drug-free, non-smokers. Blood (approximately 20 mls to test 8 compounds) is collected by venipuncture into Vacutainer® (Becton, Dickinson and Co.) tubes with sodium heparin.
# Solutions of Formula I compounds at 10 mM in DMSO are diluted 1:10 in 100% DMSO, then are diluted by three-fold serial dilutions in 100% DMSO for a ten point dose-response curve. The compounds are further diluted 1:10 in PBS and then an aliquot of 5.5 µl of each compound is added in duplicate to a 2 ml 96-well plate; 5.5 µl of 10% DMSO in PBS is added as control and no-stimulus wells. Human whole blood - HWB (100 µl) is added to each well. After mixing the plates are incubated at 37 °C, 5% CO2, 100% humidity for 30 minutes. Goat F(ab')2 anti-human IgM (10 µl of a 500 µg/ml solution, 50 µg/ml final) is added to each well (except the no-stimulus wells) with mixing and the plates are incubated for an additional 20 hours. At the end of the 20 hour incubation, samples are incubated with fluorescent labeled antibodies for 30 minutes, at 37 °C, 5% CO2, 100% humidity. Include induced control, unstained and single stains for compensation adjustments and initial voltage settings. Samples are then lysed with PharM Lyse™ (BD Biosciences Pharmingen) according to the manufacturer's instructions. Samples are then transferred to a 96 well plate suitable to be run on the BD Biosciences HTS 96 well system on the LSRII machine. Data acquired and Mean Fluorescence Intensity values were obtained using BD Biosciences DIVA Software. Results are initially analyzed by FACS analysis software (Flow Jo). […] The IC50 values are calculated by Prism version 5, using a nonlinear regression curve fit.
# T1 sequence (Q06187 whole entry): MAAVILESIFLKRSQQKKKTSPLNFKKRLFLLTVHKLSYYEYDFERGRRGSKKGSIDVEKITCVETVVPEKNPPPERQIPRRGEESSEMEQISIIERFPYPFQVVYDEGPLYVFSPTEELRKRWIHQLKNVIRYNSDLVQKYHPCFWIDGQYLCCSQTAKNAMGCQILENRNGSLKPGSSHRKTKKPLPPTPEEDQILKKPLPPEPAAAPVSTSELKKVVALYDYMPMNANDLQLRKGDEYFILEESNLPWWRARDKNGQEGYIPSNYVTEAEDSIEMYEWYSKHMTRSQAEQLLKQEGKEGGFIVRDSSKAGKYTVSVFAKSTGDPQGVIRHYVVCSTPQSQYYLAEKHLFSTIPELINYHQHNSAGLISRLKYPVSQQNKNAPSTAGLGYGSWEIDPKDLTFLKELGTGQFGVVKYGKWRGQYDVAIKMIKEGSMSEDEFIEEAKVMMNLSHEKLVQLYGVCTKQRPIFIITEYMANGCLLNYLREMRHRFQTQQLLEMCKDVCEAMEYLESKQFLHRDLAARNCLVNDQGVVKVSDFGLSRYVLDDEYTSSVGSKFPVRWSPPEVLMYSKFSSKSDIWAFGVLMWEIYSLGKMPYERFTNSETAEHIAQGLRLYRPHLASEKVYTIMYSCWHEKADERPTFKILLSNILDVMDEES
SMILES,IC50 [1] [nM],EC50 [2] [nM],IC50 [3] [nM]
"Cc1cc(Nc2cc(-c3ccc(F)c(N4Cc5cc(C(C)(C)C)sc5C4=O)n3)n[nH]c2=O)nn1C [Compound 117, 6-(6-{2-tert-butyl-b-oxo-4H,5H,6H-thieno[2,3-c]pyrrol-5-yl}-5-fluoropyridin-2-yl)-4-[(1,5-dimethyl-1H-pyrazol-3-yl)amino]-2,3-dihydropyridazin-3-one]",45,,
"Cc1c(-c2cc(Nc3cc4n(n3)CCN(C)C4)c(=O)n(C)n2)cc(F)cc1N1Cc2cc(C(C)(C)C)sc2C1=O [Compound 124, 6-(3-{2-tert-butyl-6-oxo-4H,5H,6H-thieno[2,3-c]pyrrol-5-yl}-5-fluoro-2-methylphenyl)-2-methyl-4-({5-methyl-4H,5H,6H,7H-pyrazolo[1,5-a]pyrazin-2-yl}amino)-2,3-dihydropyridazin-3-one]",,1100,
"CC(=O)N1CCn2nc(Nc3cc(-c4cccc(N5Cc6cc(C(C)(C)C)sc6C5=O)c4CCO)nn(C)c3=O)cc2C1 [Compound 128, 6-(3-{2-tert-butyl-6-oxo-4H,5H,6H-thieno[2,3-c]pyrrol-5-yl}-2-(2-hydroxyethyl)phenyl)-4-({5-acetyl-4H,5H,6H,7H-pyrazolo[1,5-a]pyrazin-2-yl}amino)-2-methyl-2,3-dihydropyridazin-3-one]",,,568
"Cn1nc(-c2cccc(N3Cc4cc(C(C)(C)C)sc4C3=O)c2CO)cc(Nc2cc(C3CC3)[nH]n2)c1=O [Compound 127, 6-(3-{2-tert-butyl-6-oxo-4H,5H,6H-thieno[2,3-c]pyrrol-5-yl}-2-(hydroxymethyl)phenyl)-4-[(5-cyclopropyl-1H-pyrazol-3-yl)amino]-2-methyl-2,3-dihydropyridazin-3-one]",,178,
"Cc1c(-c2cc(Nc3nc4c(s3)CNCC4)c(=O)[nH]n2)cccc1N1Cc2cc(C(C)(C)C)sc2C1=O [Compound 118, 6-(3-{2-tert-butyl-6-oxo-4H,5H,6H-thieno[2,3-c]pyrrol-5-yl}-2-methylphenyl)-4-{4H,5H,6H,7H-pyrido[4,3-d][1,3]thiazol-2-ylamino}-2,3-dihydropyridazin-3-one]",65,,
"Cc1cc(Nc2cc(-c3cccc(N4Cc5cc(C(C)(C)C)sc5C4=O)c3CO)nn(C)c2=O)nn1C [Compound 131, 6-(3-{2-tert-butyl-6-oxo-4H,5H,6H-thieno[2,3-c]pyrrol-5-yl}-2-(hydroxymethyl)phenyl)-4-[(1,5-dimethyl-1H-pyrazol-3-yl)amino]-2-methyl-2,3-dihydropyridazin-3-one]",,139,
"Cn1nc(-c2cccc(N3Cc4cc(C(C)(C)C)sc4C3=O)c2CO)cc(Nc2ccncn2)c1=O [Compound 136, 6-(3-{2-tert-butyl-6-oxo-4H,5H,6H-thieno[2,3-c]pyrrol-5-yl}-2-(hydroxymethyl)phenyl)-2-methyl-4-(pyrimidin-4-ylamino)-2,3-dihydropyridazin-3-one]",,704,
"CC(=O)N1CCn2nc(Nc3cc(-c4cccc(N5Cc6cc(C(C)(C)C)sc6C5=O)c4CO)nn(C)c3=O)cc2C1 [Compound 132, 6-(3-{2-tert-butyl-6-oxo-4H,5H,6H-thieno[2,3-c]pyrrol-5-yl}-2-(hydroxymethyl)phenyl)-4-({5-acetyl-4H,5H,6H,7H-pyrazolo[1,5-a]pyrazin-2-yl}amino)-2-methyl-2,3-dihydropyridazin-3-one]",,113,
"Cc1c(-c2cc(Nc3cc4n(n3)CCN(C)C4)c(=O)[nH]n2)cccc1N1Cc2cc(C(C)(C)C)sc2C1=O [Compound 101, 6-(3-{2-tert-butyl-6-oxo-4H,5H,6H-thieno[2,3-c]pyrrol-5-yl}-2-methylphenyl)-4-({5-methyl-4H,5H,6H,7H-pyrazolo[1,5-a]pyrazin-2-yl}amino)-2,3-dihydropyridazin-3-one]",,192,
"Cc1c(-c2cc(Nc3cc(C)n(C)n3)c(=O)[nH]n2)cccc1N1Cc2cc(C(C)(C)C)sc2C1=O [Compound 112, 6-(3-{2-tert-butyl-6-oxo-4H,5H,6H-thieno[2,3-c]pyrrol-5-yl}-2-methylphenyl)-4-[(1,5-dimethyl-1 H-pyrazol-3-yl)amino]-2,3-dihydropyridazin-3-one]",3,,
"CN1CCn2nc(Nc3cc(-c4cccc(N5Cc6cc(C(C)(C)C)sc6C5=O)c4CO)nn(C)c3=O)cc2C1 [Compound 120, 6-(3-{2-tert-butyl-6-oxo-4H,5H,6H-thieno[2,3-c]pyrrol-5-yl}-2-(hydroxymethyl)phenyl)-2-methyl-4-({5-methyl-4H,5H,6H,7H-pyrazolo[1,5-a]pyrazin-2-yl}amino)-2,3-dihydropyridazin-3-one]",55,189,
"Cc1cc(Nc2cc(-c3cccc(N4Cc5cc(C(C)(C)C)sc5C4=O)c3C)n[nH]c2=O)no1 [Compound 115, 6-(3-{2-tert-butyl-6-oxo-4H,5H,6H-thieno[2,3-c]pyrrol-5-yl}-2-methylphenyl)-4-[(5-methyl-1,2-oxazol-3-yl)amino]-2,3-dihydropyridazin-3-one]",18,,
"Cc1c(-c2cc(Nc3cc(CN4CC(F)(F)C4)n(C)n3)c(=O)[nH]n2)cccc1N1Cc2cc(C(C)(C)C)sc2C1=O [Compound 119, 6-(3-{2-tert-butyl-6-oxo-4H,5H,6H-thieno[2,3-c]pyrrol-5-yl}-2-methylphenyl)-4-({5-[(3,3-difluoroazetidin-1-yl)methyl]-1-methyl-1H-pyrazol-3-yl}amino)-2,3-dihydropyridazin-3-one]",5,352,
"Cn1nc(-c2cccc(N3Cc4cc(C(C)(C)C)sc4C3=O)c2CO)cc(Nc2cc3n(n2)CCCOC3)c1=O [Compound 134, 6-(3-{2-tert-butyl-6-oxo-4H,5H,6H-thieno[2,3-c]pyrrol-5-yl}-2-(hydroxymethyl)phenyl)-2-methyl-4-{4H,6H,7H,8H-pyrazolo[3,2-c][1,4]oxazepin-2-ylamino}-2,3-dihydropyridazin-3-one]",,206,
